# Test results published in ChEMBL document CHEMBL5356935, “Discovery of rigid biphenyl Plasmodium falciparum DHFR inhibitors using a fragment linking strategy” (RSC Med Chem, 2023).
# The source made the active and inactive calls. The calls are words filed in the database; no cut-off is given here.
# Columns and labels:
# [1] = molecular target: Bifunctional dihydrofolate reductase-thymidylate synthase (Plasmodium falciparum K1, UniProt P13922); assay: Inhibition of wild type Plasmodium falciparum DHFR using DHF as substrate assessed as inhibition constant in presence of NADPH by UV-Vis spectrometry analysis
# Sequence of Bifunctional dihydrofolate reductase-thymidylate synthase (P13922 whole entry): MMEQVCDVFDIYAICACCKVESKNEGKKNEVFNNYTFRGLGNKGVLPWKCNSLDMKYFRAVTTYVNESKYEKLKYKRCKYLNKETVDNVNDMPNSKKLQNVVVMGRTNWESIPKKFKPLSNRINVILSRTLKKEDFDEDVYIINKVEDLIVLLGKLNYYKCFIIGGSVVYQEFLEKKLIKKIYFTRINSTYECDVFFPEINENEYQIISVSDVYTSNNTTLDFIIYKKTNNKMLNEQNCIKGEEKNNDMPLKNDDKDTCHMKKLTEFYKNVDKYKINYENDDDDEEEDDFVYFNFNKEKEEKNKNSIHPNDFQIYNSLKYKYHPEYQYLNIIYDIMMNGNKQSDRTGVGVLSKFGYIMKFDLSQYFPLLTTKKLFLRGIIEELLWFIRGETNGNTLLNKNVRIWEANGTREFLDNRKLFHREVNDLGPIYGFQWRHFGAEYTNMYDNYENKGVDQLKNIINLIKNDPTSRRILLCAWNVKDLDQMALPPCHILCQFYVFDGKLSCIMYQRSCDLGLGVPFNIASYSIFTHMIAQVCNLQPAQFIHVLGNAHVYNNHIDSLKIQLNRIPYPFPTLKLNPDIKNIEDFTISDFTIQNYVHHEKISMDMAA
# [2] = Cytotoxicity against African green monkey Vero cells assessed as cell growth inhibition incubated for 72 hrs by sulforhodamine B assay; type: toxicity, cell-based, Chlorocebus sabaeus
# [3] = Inhibition of Plasmodium falciparum DHFR N51I/C59R/S108N/I164L quadruple mutant using DHF as substrate assessed as inhibition constant in presence of NADPH by UV-Vis spectrometry analysis
# Plasmodium falciparum [4] = assay: Antiplasmodial activity against PYR-resistant Plasmodium falciparum V1/S encoding QM DHFR infected in human erythrocytes assessed as inhibition of parasite growth by [3H]-hypoxanthine incorporation assay; type: functional, organism-based; conditions: Erythrocyte
# Plasmodium falciparum [5] = assay: Antiplasmodial activity against PYR-sensitive Plasmodium falciparum TM4/8.2 encoding WT DHFR infected in human erythrocytes assessed as inhibition of parasite growth by [3H]-hypoxanthine incorporation assay; type: functional, organism-based; conditions: TM4/8.2, Erythrocyte
# Dihydrofolate reductase = molecular target: T1, Dihydrofolate reductase (Homo sapiens, UniProt P00374); assay: Inhibition of human DHFR using DHF as substrate assessed as inhibition constant in presence of NADPH by UV-Vis spectrometry analysis
# T1 sequence (P00374 whole entry): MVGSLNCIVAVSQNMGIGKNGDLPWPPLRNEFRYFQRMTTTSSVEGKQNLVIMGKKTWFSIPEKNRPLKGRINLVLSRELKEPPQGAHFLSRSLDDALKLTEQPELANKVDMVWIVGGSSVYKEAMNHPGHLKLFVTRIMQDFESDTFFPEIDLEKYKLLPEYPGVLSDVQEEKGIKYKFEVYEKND
# [6] = Distribution coefficient, log D of compound in n-octanol and saturated PBS at pH 7.4 at 100 uM incubated for 2 hrs under shaking condition by HPLC analysis; type: physicochemical
# [7] = molecular target: Bifunctional dihydrofolate reductase-thymidylate synthase (Plasmodium falciparum K1) (UniProt P13922); assay: Inhibition of wild type Plasmodium falciparum DHFR using DHF as substrate at 500 uM in presence of NADPH by UV-Vis spectrometry analysis relative to control
# Sequence of Bifunctional dihydrofolate reductase-thymidylate synthase (Plasmodium falciparum K1) (P13922 whole entry, looked up): as the sequence (P13922 whole entry) above
# Plasmodium falciparum [8] = assay: Inhibition of Plasmodium falciparum DHFR N51I/C59R/S108N/I164L quadruple mutant using DHF as substrate at 500 uM in presence of NADPH by UV-Vis spectrometry analysis relative to control
# [9] = molecular target: T2, Dihydrofolate reductase (Homo sapiens) (UniProt P00374); assay: Inhibition of human DHFR at 500 uM by UV-Vis spectrometry analysis
# T2 sequence (whole entry): T1 sequence (P00374 whole entry)
# [10] = molecular target: Bifunctional dihydrofolate reductase-thymidylate synthase (Plasmodium falciparum K1) (UniProt P13922); assay: Binding affinity to Plasmodium falciparum DHFR assessed as binding constant (koff) by surface plasmon resonance analysis
# [11] = molecular target: Bifunctional dihydrofolate reductase-thymidylate synthase (Plasmodium falciparum K1) (UniProt P13922); assay: Binding affinity to Plasmodium falciparum DHFR assessed as binding constant (kon) by surface plasmon resonance analysis
# Plasmodium falciparum [12] = assay: Inhibition of Plasmodium falciparum DHFR N51I/C59R/S108N/I164L quadruple mutant using DHF as substrate at 500 uM in presence of NADPH by UV-Vis spectrometry analysis
# [13] = molecular target: Bifunctional dihydrofolate reductase-thymidylate synthase (Plasmodium falciparum K1) (UniProt P13922); assay: Inhibition of wild type Plasmodium falciparum DHFR using DHF as substrate at 500 uM in presence of NADPH by UV-Vis spectrometry analysis
# [14] = Metabolic stability in rat liver microsomes assessed as intrinsic clearance measured upto 60 mins in presence of NADPH by LC-MS/MS analysis; type: ADME, Microsome; conditions: read-out: CLH
# [15] = Kinetic solubility of the compound at pH 4.5 at 200 uM incubated for 2 hrs under shaking condition by HPLC analysis; type: physicochemical; conditions: buffer, read-out: Kinetic_solubility
# [16] = Kinetic solubility of the compound at pH 6.5 at 200 uM incubated for 2 hrs under shaking condition by HPLC analysis; type: physicochemical; conditions: buffer, read-out: Kinetic_solubility
# [17] = Kinetic solubility of the compound at pH 2.0 at 200 uM incubated for 2 hrs under shaking condition by HPLC analysis; type: physicochemical; conditions: buffer, read-out: Kinetic_solubility
# [18] = Kinetic solubility of the compound at pH 7.4 at 200 uM incubated for 2 hrs under shaking condition by HPLC analysis; type: physicochemical; conditions: buffer, read-out: Kinetic_solubility
# [19] = Metabolic stability in human liver microsomes assessed as intrinsic clearance measured upto 60 mins in presence of NADPH by LC-MS/MS analysis; type: ADME, Microsome; conditions: read-out: CLH
# [20] = molecular target: Bifunctional dihydrofolate reductase-thymidylate synthase (Plasmodium falciparum K1) (UniProt P13922); assay: Binding affinity to Plasmodium falciparum DHFR assessed as faster binding and release kinetics by surface plasmon resonance analysis
# Plasmodium falciparum [21] = assay: Inhibition of Plasmodium falciparum DHFR N51I/C59R/S108N/I164L quadruple mutant assessed as fold change in inhibition in presence of 2,4-diamino-6-ethylpyrimidin-5-ol
compound,measurement,setting,value
CCc1nc(N)nc(N)c1Cc1cccc(-c2cccc(C(=O)OC)c2)c1,Ki,[1],0.21 nM
same,IC50 at 72 h,[2],21700 nM
same,Ki,[3],0.58 nM
same,IC50,Plasmodium falciparum [4],40000 nM
same,IC50,Plasmodium falciparum [5],4950 nM
same,Ki,Dihydrofolate reductase,19.4 nM
same,"logD at 2 h, 100 µM",[6],3.2
O=C(O)c1ccc(-c2ccncc2)cc1,inhibition,[7],2.93%
same,inhibition,Plasmodium falciparum [8],10.1%
same,inhibition,[9],inactive
same,K,[10],0.001 s⁻¹
same,K,[11],16.4 M⁻¹ s⁻¹
CCc1nc(N)nc(N)c1Cc1cccc(-c2ccc(C(=O)OC)cc2)c1,Ki,[1],0.25 nM
same,IC50 at 72 h,[2],> 50000 nM
same,Ki,[3],1.04 nM
same,IC50,Plasmodium falciparum [4],> 50000 nM
same,IC50,Plasmodium falciparum [5],34100 nM
same,Ki,Dihydrofolate reductase,16.6 nM
same,"logD at 2 h, 100 µM",[6],3.24
Cc1oc(-c2ccccc2)cc1C(=O)O,inhibition,[9],inactive
same,K,[10],0.014 s⁻¹
same,K,[11],6.06 M⁻¹ s⁻¹
same,inhibition,Plasmodium falciparum [12],inactive
same,inhibition,[13],inactive
O=C(O)c1cccc(-c2ccccc2)n1,inhibition,[9],inactive
same,K,[10],0.013 s⁻¹
same,K,[11],9.99 M⁻¹ s⁻¹
same,inhibition,Plasmodium falciparum [12],inactive
same,inhibition,[13],inactive
CCc1nc(N)nc(N)c1Cc1ccc(-c2ccc(C(=O)OC)cc2)cc1.Cl,Ki,[1],1.06 nM
same,IC50 at 72 h,[2],> 25000 nM
same,Ki,[3],41.7 nM
same,microsomal CLint,[14],764 µL/min/mg
same,IC50,Plasmodium falciparum [4],> 25000 nM
same,IC50,Plasmodium falciparum [5],8150 nM
same,"solubility kinetic at 2 h, 200 µM",[15],132 µM
same,"solubility kinetic at 2 h, 200 µM",[16],< 4 µM
same,"solubility kinetic at 2 h, 200 µM",[17],154 µM
same,Ki,Dihydrofolate reductase,423 nM
same,"logD at 2 h, 100 µM",[6],3.49
same,"solubility kinetic at 2 h, 200 µM",[18],< 4 µM
same,microsomal CLint,[19],459 µL/min/mg
CCc1nc(N)nc(N)c1Cc1ccc(-c2ccc(C(=O)O)cc2)cc1.Cl,Ki,[1],1.59 nM
same,IC50 at 72 h,[2],> 50000 nM
same,Ki,[3],61.1 nM
same,microsomal CLint,[14],< 3 µL/min/mg
same,IC50,Plasmodium falciparum [4],> 50000 nM
same,IC50,Plasmodium falciparum [5],11200 nM
same,"solubility kinetic at 2 h, 200 µM",[15],8.8 µM
same,"solubility kinetic at 2 h, 200 µM",[16],11.4 µM
same,"solubility kinetic at 2 h, 200 µM",[17],176 µM
same,Ki,Dihydrofolate reductase,214 nM
same,"logD at 2 h, 100 µM",[6],0.332
same,"solubility kinetic at 2 h, 200 µM",[18],11.7 µM
same,microsomal CLint,[19],< 3 µL/min/mg
O=C(O)c1ccccc1-c1ccco1,inhibition,[7],6.5%
same,inhibition,Plasmodium falciparum [8],7.7%
same,inhibition,[9],inactive
same,K,[10],0.012 s⁻¹
same,K,[11],40 M⁻¹ s⁻¹
COc1cc(Cc2cnc(N)nc2N)cc(OC)c1OC [TRIMETHOPRIM],Ki,[3],49.1 nM
O=C(O)c1ccc(-c2ccc(O)cc2)cc1,inhibition,[7],21.1%
same,inhibition,Plasmodium falciparum [8],24.9%
same,inhibition,[9],inactive
same,K,[10],0.011 s⁻¹
same,K,[11],14.8 M⁻¹ s⁻¹
O=C(O)c1cccnc1-c1ccccc1,Activity,[20],Active
same,inhibition,[9],inactive
same,inhibition,Plasmodium falciparum [12],inactive
same,inhibition,[13],inactive
O=C(O)c1ccc(-c2cnco2)cc1,inhibition,Plasmodium falciparum [8],11.3%
same,inhibition,[9],inactive
same,K,[10],0.013 s⁻¹
same,K,[11],5.26 M⁻¹ s⁻¹
same,fold change (FC),Plasmodium falciparum [21],2.6
same,inhibition,[13],inactive
O=C(O)c1ccc(-c2cccnc2)cc1,inhibition,[7],8.5%
same,inhibition,Plasmodium falciparum [8],2.4%
same,inhibition,[9],inactive
same,K,[10],0.001 s⁻¹
same,K,[11],4.18 M⁻¹ s⁻¹
O=C(O)c1ccccc1-c1ccncc1,Activity,[20],Active
same,inhibition,[9],inactive
same,inhibition,Plasmodium falciparum [12],inactive
same,inhibition,[13],inactive
CCc1nc(N)nc(N)c1Cc1cccc(-c2ccc(C(=O)O)cc2)c1.Cl.Cl,Ki,[1],0.48 nM
same,IC50 at 72 h,[2],> 50000 nM
same,Ki,[3],3.3 nM
same,IC50,Plasmodium falciparum [4],> 50000 nM
same,IC50,Plasmodium falciparum [5],8550 nM
same,"solubility kinetic at 2 h, 200 µM",[15],19.2 µM
same,"solubility kinetic at 2 h, 200 µM",[16],19.2 µM
same,"solubility kinetic at 2 h, 200 µM",[17],188 µM
same,Ki,Dihydrofolate reductase,22 nM
same,"solubility kinetic at 2 h, 200 µM",[18],30.8 µM
O=C(O)c1cccc(-c2cccnc2)c1,inhibition,Plasmodium falciparum [8],3.89%
same,inhibition,[9],inactive
same,K,[10],0.002 s⁻¹
same,K,[11],16.3 M⁻¹ s⁻¹
same,inhibition,[13],inactive
CCc1nc(N)nc(N)c1Cc1ccc(-c2cccc(C(=O)O)c2)cc1.Cl,Ki,[1],0.29 nM
same,IC50 at 72 h,[2],> 50000 nM
same,Ki,[3],1.96 nM
same,microsomal CLint,[14],< 3 µL/min/mg
same,IC50,Plasmodium falciparum [4],29700 nM
same,IC50,Plasmodium falciparum [5],770 nM
same,"solubility kinetic at 2 h, 200 µM",[15],11.4 µM
same,"solubility kinetic at 2 h, 200 µM",[16],15.7 µM
same,"solubility kinetic at 2 h, 200 µM",[17],192 µM
same,Ki,Dihydrofolate reductase,147 nM
same,"solubility kinetic at 2 h, 200 µM",[18],29.9 µM
same,microsomal CLint,[19],4.92 µL/min/mg
O=C(O)c1ccc(-n2cccc2)cc1,inhibition,[7],8%
same,inhibition,Plasmodium falciparum [8],19.4%
same,inhibition,[9],inactive
same,K,[10],0.008 s⁻¹
same,K,[11],14.6 M⁻¹ s⁻¹
COc1cccc(-c2ccc(C(=O)O)o2)c1,inhibition,[7],12.7%
same,inhibition,[9],inactive
same,K,[10],0.014 s⁻¹
same,K,[11],9.51 M⁻¹ s⁻¹
same,inhibition,Plasmodium falciparum [12],inactive
CCc1nc(N)nc(N)c1Cc1cccc(-c2cccc(C(=O)O)c2)c1,Ki,[1],0.23 nM
same,IC50 at 72 h,[2],> 50000 nM
same,Ki,[3],0.81 nM
same,IC50,Plasmodium falciparum [4],35000 nM
same,IC50,Plasmodium falciparum [5],4140 nM
same,Ki,Dihydrofolate reductase,108 nM
CCc1nc(N)nc(N)c1Cc1ccc(-c2cccc(C(=O)OC)c2)cc1.Cl,Ki,[1],0.29 nM
same,IC50 at 72 h,[2],19300 nM
same,Ki,[3],2.11 nM
same,microsomal CLint,[14],100 µL/min/mg
same,IC50,Plasmodium falciparum [4],34500 nM
same,IC50,Plasmodium falciparum [5],720 nM
same,"solubility kinetic at 2 h, 200 µM",[15],183 µM
same,"solubility kinetic at 2 h, 200 µM",[16],8.8 µM
same,"solubility kinetic at 2 h, 200 µM",[17],186 µM
same,Ki,Dihydrofolate reductase,140 nM
same,"logD at 2 h, 100 µM",[6],3.37
same,"solubility kinetic at 2 h, 200 µM",[18],8.1 µM
same,microsomal CLint,[19],625 µL/min/mg
O=C(O)c1ccnc(-c2ccccc2)c1,inhibition,[9],inactive
same,K,[10],0.01 s⁻¹
same,K,[11],3.55 M⁻¹ s⁻¹
same,inhibition,Plasmodium falciparum [12],inactive
same,inhibition,[13],inactive
